{"source": "paper PMC10721928", "about": "“Structures revealing mechanisms of resistance and collateral sensitivity of Plasmodium falciparum to proteasome inhibitors” (Nature Communications, 2023)", "key": {"P. falciparum 3D7A": {"system": "P. falciparum 3D7A", "conditions": "compared with pyrimethamine; cited from earlier work", "from_the_text": "We previously reported two classes of non-covalent Pf20S selective inhibitors, one with a fast-on/off kinetics, represented by TDI-4258[19], and one with a time-dependent inhibition kinetics, represented by TDI-8304 (Fig. 1a)[16]. […] To investigate if inhibitors of the same target with diffe ..."}, "[1]": {"system": "Mutants resistant to proteasome inhibitors", "conditions": "versus corresponding wild-type strains; cited from earlier work", "from_the_text": "(§1) Mutations in Kelch13 (K13) are associated with ART resistance at the ring stage in laboratory settings[20]–[22]. […] Even a strain with doub ..."}, "Cam3.I^Rev": {"system": "Cam3.I^Rev", "test": "Ring-stage survival assay, revertant", "type": "cell-based, Plasmodium falciparum", "conditions": "700 nM, 6 h", "description": "(§2) Ring-stage survival assays (RSA) were performed as reported. Parasite cultures, artemisinin resistant Cam3.I^R539T and the genetically engineered artemisinin sensitive revertant Cam3.I^rev, were synchronized with 5% sorbitol and a Percoll-sorbitol gradient to obtain tightly synchronized late-stage parasites. After isolation, the tightly synchronized parasites were then allowed to reinvade fresh red blood cells for 3 h and the microscopically confirmed ring stage parasite cultures were again subjected to 5% sorbitol to obtain 0–3 h rings. The isolated ring stage cultures were then plated into a 96-well plate at 0.5% parasitemia and treated with DHA and TDI-8304 at 700 nM at 37 °C in standard gas conditions for 6 h. The plates were then spun and washed to remove compounds and replenished with fresh medium without compounds. Parasite growth was assessed 66 h later using flow cytometry (Becton-Dickson flow cytometer) and nucleic acid stains HO (Hoechst 33342) and TO (thiazole orange)."}, "Cam3.I^R539T": {"system": "Cam3.I^R539T", "test": "Ring-stage survival assay, ART-resistant", "type": "cell-based, Plasmodium falciparum", "conditions": "700 nM, 6 h", "description": "as §2"}, "Dd2": {"system": "Dd2", "test": "Parasite growth inhibition assay, Dd2", "type": "cell-based", "conditions": "Plasmodium falciparum", "description": "(§3) Parasite growth inhibition assays for P. falciparum wild type and mutants were performed as reported[19],[32]."}, "DR1": {"system": "DR1", "test": "Parasite growth inhibition assay, DR1", "type": "cell-based", "conditions": "Plasmodium falciparum, read-out: EC50 (Fig. 1e)", "description": "as §3"}, "DR2": {"system": "DR2", "test": "Parasite growth inhibition assay, DR2", "type": "cell-based", "conditions": "Plasmodium falciparum, read-out: EC50 (Fig. 1e)", "description": "as §3"}, "DR4": {"system": "DR4", "test": "Parasite growth inhibition assay, DR4", "type": "cell-based", "conditions": "Plasmodium falciparum, Exp 2; read-out: EC50 (Fig. 1e)", "description": "as §3"}, "DR1/2/4": {"system": "DR1/2/4", "test": "Parasite growth inhibition assay, DHA-selected clones", "type": "cell-based, Plasmodium falciparum", "description": "as §3"}, "[2]": {"system": "strain with double mutations in both the proteasome and K13", "conditions": "versus wild-type strain; cited from earlier work", "from_the_text": "as §1"}}, "note": "Where two headings read alike, the source gives them in different places.", "data": [{"smiles": "Cc1cc(C(=O)N[C@@H](CC(=O)NC(C)(C)C)C(=O)NCCNC(=O)c2cccc(-n3cccn3)c2)no1", "note": "[TDI-4258]", "values": [{"measurement": "in vitro parasite reduction ratio", "setting": "P. falciparum 3D7A", "value": "modest in vitro parasite reduction ratio similar to that of the antimalarial drug pyrimethamine"}]}, {"smiles": "C[C@@H]1CC[C@H]2[C@@H](C)C(=O)O[C@@H]3O[C@@]4(C)CC[C@@H]1[C@]32OO4", "note": "[ART, artemisinin]", "values": [{"measurement": "susceptibility to ART", "setting": "[1]", "value": "more susceptible to ART than the corresponding wild-type strains"}]}, {"smiles": "C[C@H]1[C@@H](O)O[C@@H]2O[C@@]3(C)CC[C@H]4[C@H](C)CC[C@@H]1[C@@]24OO3", "note": "[DHA, dihydroartemisinin]", "values": [{"measurement": "ring-stage survival result in words, K13 Rev", "setting": "Cam3.I^Rev; 0–3 h rings, readout 66 h later", "value": "highly susceptible"}, {"measurement": "ring-stage survival (Fig. 1c)", "setting": "Cam3.I^Rev; Exp 1", "value": 1.86}, {"measurement": "ring-stage survival (Fig. 1c)", "setting": "Cam3.I^Rev; Exp 2", "value": -0.27}, {"measurement": "ring-stage survival (Fig. 1c)", "setting": "Cam3.I^Rev; Exp 3", "value": 3.91}, {"measurement": "ring-stage survival result in words, K13 R539T", "setting": "Cam3.I^R539T; 0–3 h rings, readout 66 h later, means of three independent experiments, paired t test", "value": "highly resistant"}, {"measurement": "ring-stage survival (Fig. 1c)", "setting": "Cam3.I^R539T; Exp 1", "value": 18.01}, {"measurement": "ring-stage survival (Fig. 1c)", "setting": "Cam3.I^R539T; Exp 2", "value": 10.3}, {"measurement": "ring-stage survival (Fig. 1c)", "setting": "Cam3.I^R539T; Exp 3", "value": 6.84}, {"measurement": "EC50", "setting": "Dd2; DD2, read-out: EC50 (Fig. 1e), Exp 1", "value": 1, "unit": "nM"}, {"measurement": "EC50", "setting": "Dd2; DD2, read-out: EC50 (Fig. 1e), Exp 2", "value": 0.9, "unit": "nM"}, {"measurement": "EC50", "setting": "DR1; Exp 1", "value": 12.2, "unit": "nM"}, {"measurement": "EC50", "setting": "DR1; Exp 2", "value": 7.1, "unit": "nM"}, {"measurement": "EC50", "setting": "DR2; Exp 1", "value": 10.7, "unit": "nM"}, {"measurement": "EC50", "setting": "DR2; Exp 2", "value": 8.7, "unit": "nM"}, {"measurement": "EC50", "setting": "DR4", "value": 8.1, "unit": "nM"}, {"measurement": "EC50 shift in the erythrocyte assays", "setting": "DR1/2/4; DHA-selected clones versus Dd2", "value": "~ 10 fold"}, {"measurement": "sensitivity of DR1/2/4 in words", "setting": "DR1/2/4; trophozoite stage, versus Dd2", "value": "highly resistant"}, {"measurement": "susceptibility to DHA", "setting": "[2]", "value": "more susceptible to DHA than the wild-type strain"}]}]}
